Molecules are shown by their SMILES.

The test system of one test is E-cadherin. As to the kind of experiment: Endocytosis assay. The format is cell-based, human. The method, then:
hESCs were incubated with 1.5 mg/ml sulfosuccinimidyl 2-(biotinamido) ethyl-dithioproprionate (sulfo-NHS-SS-biotin) (Pierce Chemical Co.) on ice, followed by washing and quenching. Endocytosis of E-cadherin was initiated by Ca^2+ depletion and 37° C. incubation. Cells were then incubated in two 20-min washes of glutathione solution (60 mM glutathione, 0.83 M NaCl, with 0.83 M NaOH and 1% BSA added before use) at 0° C. which removed all cell surface biotin groups. Remaining biotinylated proteins were sequestered inside cells by endocytosis and were therefore protected from glutathione stripping. Biotinylated proteins were recovered on streptavidin beads and analyzed by SDS-PAGE. E-Cadherins were detected by immunoblotting. Total level of surface E-cadherin before endocytosis was used as reference.

In test [1] the test system is E-cadherins, EGFR1 and ERB2. As to the kind of experiment: Immunoprecipitation of E-cadherins with EGFR1 and Erb2. The test is classed as cell-based, human. The text has this:
Interplay between physical/structural environment and growth factor plays a very important role in cell fate regulation (Comoglio, P. M., Boccaccio, C., & Trusolino, L., Curr Opin Cell Biol 15 (5):565-571 (2003)). To examine whether growth factors are involved in integrin-mediated hESC survival, we treated dissociated hESCs with Tzv or Ptn together with individual highly specific growth factor receptor inhibitors. […] Similarly inhibition of FGFR, IGFR, EGFR1 or Erb2 also greatly abolished Tzv-induced hESC survival in suspension culture.
ALP detection kit and integrin antibodies were from Chemicon. AG825 (Erb2 inhibitor), AG1478 (EGFR inhibitor), PPP (IGFR1 inhibitor) were purchased from Calbiochem. Antibodies raised against the intracytoplasmic tail of E-cadherins (Transduction Laboratories, Lexington, Ky.) were used for immunoprecipitation. The antibody TS2/16 was from Pierce. Antibodies to the extracellular domain of E-cadherin molecule were from Zymed (Carlsbad). Antibodies against extracellular signal-regulated kinase/MAPK, EGFR1, ERB2, GADPH and phosphorylated form of AKT were from Cell Signaling. Mouse monoclonal anti-phosphotyrosine (4G-10 clone) was from Upstate Biotechnology. Ptn and Tzv were added to culture medium at 2 μM.

With `O=C(NCc1ccccc1)c1csc(Nc2ccncn2)n1` [Tzv, N-benzyl-2-(pyrimidin-4-ylamino)thiazole-4-carboxamide], in the test with E-cadherin, the “internalization of E-cadherins” value is “significantly blocked”. Further, the “binding of E-cadherins to EGFR1 and ERB2” value in test [1] is “induced binding of E-cadherins to EGFR1 and ERB2”.

Values taken from patent publication US10975352B2, “Methods of enhancing cell survival of stem cells” (The Scripps Research Institute, priority 2008, dated 2021).
